Reference: patent US20060241172A1, “Benzodioxane and benzodioxolane derivatives and uses thereof” (Wyeth, priority 2005, published 2006)

Legend:
[1] = tested on: male C57BL/6J mice and lean Zucker rats; assay: Obesity Model A: acute food intake after overnight fast, oral dosing; assay type: in vivo
Procedure: To evaluate acute in vivo efficacy of various compounds, 7 weeks-old male C57BL/6J mice were obtained from The Jackson Laboratory (Bar Harbor, Me.) and 6 weeks-old lean Zucker rats were purchased from Charles River Laboratories (Wilmington, Mass.). Mice and rats were single housed in a temperature-controlled (25° C.) facility with a 12-h light/dark cycle. Animals were allowed normal chow diet (Rodent chow #5001, PharmaServ, Framingham, Mass.) and water ad libitum. After one week acclimation, animals were randomized to vehicle (saline) or treatment groups. Animals were fasted overnight (16 hrs) and orally dosed with vehicle or compounds. Thirty minutes after compound administration, animals were given a weighed amount of food, and food intake was recorded 30 minutes, 1 h, 2 h, 4 h, 7 h and 24 h after refeeding.

[2] = target: T1, human 5-hydroxytryptamine-2C (h5-HT2C) receptor (Homo sapiens, UniProt P28335); assay: 5-HT2C binding: [125I]DOI displacement in membranes of transfected CHO cells; details: read-out: 5-HT2C Binding Ki avg
T1 construct: expressed in transfected cells; host or cells: CHO (Chinese Hamster Ovary) cells; membranes
T1 sequence (P28335 33-458): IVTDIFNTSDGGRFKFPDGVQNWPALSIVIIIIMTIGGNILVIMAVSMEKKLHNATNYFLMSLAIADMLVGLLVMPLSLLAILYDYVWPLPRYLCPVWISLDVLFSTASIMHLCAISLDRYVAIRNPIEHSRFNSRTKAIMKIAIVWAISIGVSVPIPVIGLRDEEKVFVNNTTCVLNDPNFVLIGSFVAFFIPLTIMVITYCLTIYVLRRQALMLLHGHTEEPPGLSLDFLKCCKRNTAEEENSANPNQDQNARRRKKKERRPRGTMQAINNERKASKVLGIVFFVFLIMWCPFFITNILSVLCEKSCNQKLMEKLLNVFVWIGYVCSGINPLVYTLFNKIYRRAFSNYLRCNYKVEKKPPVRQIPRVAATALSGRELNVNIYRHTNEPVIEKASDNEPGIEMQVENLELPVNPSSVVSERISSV

human 5-HT2C receptor = target: T2, human 5-HT2C receptor (Homo sapiens, UniProt P28335); assay: 5-HT2C receptor-stimulated calcium mobilization (FLIPR) in CHO cells; assay type: cell-based; details: for Emax: CHO, read-out: 5-HT2C Function EMax (%); for EC50: read-out: 5-HT2C Function EC50
T2 sequence (P28335 33-458): T1 sequence (P28335 33-458)

[3] = target: T3, human serotonin 5-HT2C receptor (Homo sapiens, UniProt P28335); assay: Saturation binding of [125I] DOI; details: saturation binding with increasing concentrations of [125I] DOI; read-out: dissociation constant, KD
T3 construct: expressed in transfected cells; host or cells: CHO (Chinese Hamster Ovary) cells; membranes
T3 sequence (P28335 33-458): T1 sequence (P28335 33-458)
Procedure: DOI. The reaction was initiated by the final addition of 100 μL of tissue suspension containing 50 μg of receptor protein. […] Test compounds were added in 20.0 μL. The mixture was incubated at room temperature for 60 min. The incubation was stopped by rapid filtration. The bound ligand-receptor complex was filtered off on a 96 well unifilter with a Packard® Filtermate 196 Harvester. The bound complex caught on the filter disk was dried in a vacuum oven heated to 60° C. and the radioactivity measured by liquid scintillation with 40 μL Microscint-20 scintillant in a Packard TopCount® equipped with six (6) photomultiplier detectors.

[4] = 10 mpk oral, 0.5 hour after refeeding
[5] = 10 mpk oral, 2 hours after refeeding
[6] = 10 mpk oral, 4 hours after refeeding
[7] = 30 mpk oral, 0.5 hour after refeeding
[8] = 30 mpk oral, 2 hours after refeeding
[9] = 30 mpk oral, 4 hours after refeeding
[10] = 50 mpk oral, 0.5 hour after refeeding
[11] = 50 mpk oral, 2 hours after refeeding
[12] = 50 mpk oral, 4 hours after refeeding

| SMILES | % Reduction food intake (vs vehicle) ([1]; 1 mpk oral, 0.5 hour after refeeding) [%] | % Reduction food intake (vs vehicle) ([1]; 1 mpk oral, 2 hours after refeeding) [%] | % Reduction food intake (vs vehicle) ([1]; 1 mpk oral, 4 hours after refeeding) [%] | % Reduction food intake (vs vehicle) ([1]; 3 mpk oral, 0.5 hour after refeeding) [%] | % Reduction food intake (vs vehicle) ([1]; 3 mpk oral, 2 hours after refeeding) [%] | % Reduction food intake (vs vehicle) ([1]; 3 mpk oral, 4 hours after refeeding) [%] | % Reduction food intake (vs vehicle) [1, 4] [%] | % Reduction food intake (vs vehicle) [1, 5] [%] | % Reduction food intake (vs vehicle) [1, 6] [%] | % Reduction food intake (vs vehicle) [1, 7] [%] | % Reduction food intake (vs vehicle) [1, 8] [%] | % Reduction food intake (vs vehicle) [1, 9] [%] | % Reduction food intake (vs vehicle) [1, 10] [%] | % Reduction food intake (vs vehicle) [1, 11] [%] | % Reduction food intake (vs vehicle) [1, 12] [%] | Ki [2] [nM] | Emax (human 5-HT2C receptor) [%] | EC50 (human 5-HT2C receptor) [nM] | Kd [3] [nM] |
| --- | --- | --- | --- | --- | --- | --- | --- | --- | --- | --- | --- | --- | --- | --- | --- | --- | --- | --- | --- |
| NC[C@H]1COc2cccc(-c3c(Cl)cccc3Cl)c2O1 [Compound I-46, {[(2S)-8-(2,6-Dichlorophenyl)-2,3-dihydro-1,4-benzodioxin-2-yl]methyl}amine] | 0 ± 12 | 0 ± 6 | 1 ± 8 | 12 ± 8 | 11 ± 5 | 14 ± 7 | 74 ± 7 | 68 ± 5 | 51 ± 4 | 78 ± 14 | 88 ± 8 | 82 ± 7 | 100 ± 11 | 100 ± 5 | 98 ± 4 | < 50 | 50 | < 100 | – |
| NCC1COc2cccc(-c3ccccc3Cl)c2O1 (stereo not shown) [Compound I-1, {[8-(2-Chlorophenyl)-2,3-dihydro-1,4-benzodioxin-2-yl]methyl}amine] | – | – | – | – | – | – | 4 ± 8 | 6 ± 8 | 16 ± 8 | 60 ± 12 | 40 ± 8 | 42 ± 5 | 74 ± 17 | 55 ± 13 | 48 ± 13 | < 50 | 60 | < 100 | – |
| NCC1COc2cccc(-c3ccccc3C(F)(F)F)c2O1 (stereo not shown) [Compound I-4, ({8-[2-(Trifluoromethyl)phenyl]-2,3-dihydro-1,4-benzodioxin-2-yl}methyl)amine] | – | – | – | – | – | – | 9 ± 6 | 5 ± 8 | 2 ± 7 | 29 ± 7 | 14 ± 8 | 0 ± 16 | 56 ± 10 | 27 ± 11 | 8 ± 14 | < 50 | 70 | < 100 | – |
| COc1cc(CC(C)N)c(OC)cc1I (stereo not shown) [[^125I] DOI] | – | – | – | – | – | – | – | – | – | – | – | – | – | – | – | – | – | – | 0.4 |
| COc1cccc(-c2cccc3c2OC(CN)CO3)c1OC (stereo not shown) [Compound I-9, {[8-(2,3-Dimethoxyphenyl)-2,3-dihydro-1,4-benzodioxin-2-yl]methyl}amine] | – | – | – | – | – | – | – | – | – | – | – | – | – | – | – | < 50 | 50 | < 100 | – |
